Assay type in all cases: cell-based, murine
The subject of assay [1] is bax. The assay is described as follows: Real-time RT-PCR gene expression, bax. Conditions: S180 cells, 40 µM, 6 h; normalized to β-actin. The procedure: (§1) The S180 cells were treated with 40 µM complex 2 for 6 h. Total RNA was extracted with Trizol reagent (Sigma-Aldrich, USA) following the manufacturer's protocol. Total RNA (2.0 µg) was used to produce complementary DNA (cDNA) with random primers (Applied Biosystems, USA) in a 20 µL reaction mixture according to the manufacturer's protocol.
(§2) Real-time PCR was carried out using a Line Gene K (Bioer Technology) instrument. Real-time PCR reactions were carried out in a 20 µL reaction mixture, including 2 µL of cDNA, 10 µL of SYBR Green PCR Master Mix (LGC Biotechnology, UK), and 2.0 µL of 400 nM forward and reverse primers. The PCR program was initiated at 95°C for 15 min followed by 40 cycles of 95°C for 15 s, 55°C for 15 s, and 72°C for 30 s. The data were analyzed according to the comparative Ct method and were normalized to the β-actin reference gene expression in each sample.
A general note: Quantitative PCR measures a nucleic acid by following its amplification.

The subject of assay [2] is p53. The assay is described as follows: Real-time RT-PCR gene expression, p53. To be noted: S180 cells, 40 µM, 6 h; p>0.05. The procedure:
as §1, §2

The subject of assay [3] is L929 normal cells. Put plainly: MTT cell viability assay, L929 normal cells. To be noted: L929 normal cell line, 48 h. The procedure: (§3) The murine sarcoma-180 tumor cells (S180) (ATCC# TIB-66) and normal murine fibroblast cells (L-929) (ATCC# CCL-1) were cultured in suspension in RPMI 1640 and DMEM media (Sigma Chemical Co., MO), respectively, supplemented with 10% fetal calf serum, 100 µg/mL penicillin, and 100 µg/mL streptomycin. The cultures were incubated in a humidified incubator (Thermo Scientific) at 37°C with 5% CO2.
(§4) The cytotoxic effects of the amino acid ruthenium complexes were evaluated using an MTT assay with S180 tumor cells and L929 normal cells as described previously. Briefly, 1.0×10^5 S180 cells and 2.0×10^4 L929 cells were plated in 96-well tissue culture plates and treated with different concentrations of amino acid ruthenium complexes (0.2–200 µM) for 48 h. After treatment, 10 µL of MTT (5 mg mL^−1) was added to each well, and the plates were incubated at 37°C for an additional 3 h. The purple formazan crystals were dissolved in 50 µL of SDS, and the absorbance was determined at 545 nm using a Stat Fax 2100 microplate reader (Awareness Technology, Palm City, FL, USA). The cell viability was calculated as follows: viability (%) = (absorbance of the treated wells)/(absorbance of the control wells) ×100. The IC50 (complex concentration (µM) that results in a 50% reduction in cellular viability) was obtained from dose-response curves using GraphPad Prism 4.02 for Windows (GraphPad Software, San Diego, CA, USA).
On the technique in general: Tetrazolium dyes change colour on reduction, which living cells bring about.

Assay [4] relates to S180 tumor cells. The assay is described as follows: MTT cell viability assay, S180 tumor cells. To be noted: S180 tumor cell line, 48 h. The procedure:
as §3, §4

Assay [5] deals with caspase 9. Put plainly: Real-time RT-PCR gene expression, caspase 9. Conditions: S180 cells, 40 µM, 6 h; normalized to β-actin. The procedure:
as §1, §2

Assay [6] has as its system S180 tumor cells. The assay is described as follows: Annexin V-FITC/PI double staining, flow cytometry. How it is done:
The cell death of S180 tumor cells was examined using the Annexin V-FITC Apoptosis Detection Kit (BD Biosciences) according to the manufacturer's instructions. S180 cells were treated with complex 2 (40 µM and 60 µM) for 24 h and 48 h. Briefly, 5.0×10^5 cells were harvested and washed with PBS. The cells were re-suspended in 400 µL of binding buffer. Next, 5 µL of Annexin V-FITC and 1 µL of PI were added. Flow cytometric analysis was performed immediately after supravital staining. Data acquisition and analysis were performed on a flow cytometer (FACSCalibur, BD Biosciences) using Cell Quest software. The criteria for positivity in cells in early stages of apoptosis were Annexin V-positive and PI-negative, whereas the criteria for cells in the late stages of apoptosis were both Annexin V-positive and PI-positive.
(In general: Flow cytometry measures light scatter and fluorescence of single cells or particles in a stream.)

In assay [7] the test system is caspase-8. Put plainly: Caspase activity colorimetric assay (IETD-pNA). Conditions: S180 cells, 40 µM, 24 h; control 100%. The procedure:
(§5) Direct measurement of the activity of caspases 3, 8, and 9 were performed using the ApoTarget Caspase 3, 8, and 9 Protease Assay (Invitrogen) according to the manufacturer's recommendations. After treatment with complex 2 (40 µM and 60 µM) for 24 h, the cells were lysed with chilled cell lysis buffer. The protein concentration was then measured using the BSA Protein Assay Kit (BioRad). An aliquot of the protein extract (75 µg) was mixed with 50 µL of 2X reaction buffer supplemented with 10 mM DTT and the substrates of DEVD-pNA (caspase-3), IETD-pNA (caspase-8), or LEHD-pNA (caspase-9). The mixtures were then incubated for 2 h at 37°C. Subsequently, the formation of p-nitroanilide in the samples was measured using an ELISA microplate reader at 405 nm. The increases in the activities of caspase-3, caspase-8, and caspase-9 were determined by comparing the results with the control.

In assay [8] the test system is caspase-9. The assay is described as follows: Caspase activity colorimetric assay (LEHD-pNA). Conditions: S180 cells, 40 µM, 24 h; control 100%. How it is done:
as §5

This is an account of results in publication PMC4201456, “Cytoxicity and Apoptotic Mechanism of Ruthenium(II) Amino Acid Complexes in Sarcoma-180 Tumor Cells” (PLoS ONE, 2014).

As a reminder, the IC50 is the midpoint of a concentration-inhibition curve. Read a low IC50 as inhibition by little substance.

`F[P-](F)(F)(F)(F)F.NCC(=O)[O-].[Ru+2].c1ccc(-c2ccccn2)nc1.c1ccc(P(CCCCP(c2ccccc2)c2ccccc2)c2ccccc2)cc1` [Complex 2, [Ru(gly)(bipy)(dppb)]PF6]: in assay [1], the “expression level of the bax gene compared to untreated control” value was 2.75 fold. In assay [2], the “expression level of p53 compared with control” value is recorded as “remained unchanged”. Moreover, the figures for the IC50 in assay [3] and in assay [4] were 51.6 ± 1.22 µM and 31.2 ± 4.19 µM, respectively. Besides, the “expression level of caspase 9 compared to control” value in assay [5] came out at 1.83 fold. Also, the “cells in early apoptosis (Annexin V+ and PI-)” value in assay [6] (40 µM, 24 h) was 19.76%; in assay [6] (40 µM, 48 h), 42.59%; in assay [6] (60 µM, 24 h), 22.48%; in assay [6] (60 µM, 48 h), 47.48%. The “cells in late apoptosis (Annexin V+ and PI+)” value in assay [6] (40 µM, 24 h) was 22.76%; in assay [6] (40 µM, 48 h), 25.16%; in assay [6] (60 µM, 24 h), 31.67%; in assay [6] (60 µM, 48 h), 30.24%. In addition, in assay [7], the “activity of caspase-8” value turned out to be 127.22%. Besides, in assay [8], the “activity of caspase-9” value is on record as 176.43%.
